Read-outs that look alike come from different tables or passages of the source.
Legend:
Assay type in all cases: cell-based
[1] = test system: A549 (KRasG12S); experiment: KRas mutant cell proliferation, CellTiter-Glo (CTG); conditions: Homo sapiens, A549, KRas G12S, lung cancer, 72 h; for inhibition at up to 10 µM: top concentration 10 μM, read-out: Maximum inhibition %
Description: (§1) In this assay, the CellTiter-Glo (CTG) kit of Promega was used to evaluate the anti-proliferation activities of the compounds of the present disclosure on 12 KRas mutant tumor cell lines.
(§2) [Test materials]: RPMI1640 medium (Hyclone, Cat #SH30809.01); fetal bovine serum (FBS) (Gibco, Cat #10099-141); phosphate buffer PBS (Solarbio, Cat #P1020-500); DMSO (Sigma, Cat #D8418-1L); detection kit CTG (Promega, Cat #G7573); 96-well cell culture plate (Thermo, Cat #3100 Series); Vibrator (QILINBEIER, Cat #QB-9001); Incubator (Thermo Scientific, Cat #Model 3100 series); microscope (OLYMPUS, Cat #CKX41SF); multi-function microplate reader (BMG LABTECH, Cat #CLARIOstar® Plus); biological safety cabinet (Thermo, Cat #Model 1300 Series A2). All cell lines used in the following assay were purchased from KYinno Biotechnology Co., Ltd.
(§3) Each of the above cell lines was cultured in the indicated complete medium at 37° C., 5% CO2, and the cells in the logarithmic growth phase were harvested and counted using a platelet counter. The cell viability was detected by the trypan blue exclusion method to ensure that the cell viability was above 90%. Cell density was adjusted using complete medium, and then inoculated into 96-well cell culture plates, at 90 μL and a total of 3000 cells per well. The cells in the 96-well plate were cultured at 37° C. and 5% CO2.
(§4) The test compound solution in culture medium was prepared, the top concentration was 10 μM, serially diluted at a dilution factor of 3.16 to afford 9 concentrations. 10 μL of each diluted compound solution was transferred to the corresponding experimental well of the 96-well cell plate and each concentration was set three replicate wells. The cells in the 96-well plate that had been dosed were incubated at 37° C. and 5% CO2 for 72 hours, and then CTG analysis was performed.
(§5) The CTG reagent was melted, and the cell plate was moved to room temperature to equilibrate for 30 minutes. 100 μL of CTG solution was added to each well, and shaken on an orbital shaker for 5 minutes to fully lyse the cells. The plate was kept at room temperature for 20 minutes to stabilize the luminescence signal, and the luminescence value of each well was scanned and the data was collected. GraphPad Prism 7.0 software was used to analyze the data, and the nonlinear Sigmoidal regression was used to fit the data to obtain a dose-response curve. The relative and absolute IC50 values and the maximum inhibition rate were calculated according to conventional methods well known to those skilled in the art.
(§6) Inhibition rate %=[1−(LumDrug to be tested−LumCulture medium control)/(LUMCell control−LumCulture medium control)]×100%

[2] = test system: H1373 (KRas-G12C); experiment: as above; conditions: Homo sapiens, NCI-H1373, lung cancer, 72 h; for inhibition at up to 10 µM: top concentration 10 μM, read-out: Maximum inhibition %
Description: as §1, §2, §3, §4, §5, §6

[3] = test system: H23 (KRas-G12C); experiment: as above; conditions: lung cancer, 72 h; for inhibition at up to 10 µM: top concentration 10 μM, read-out: Maximum inhibition %
Description: as §1, §2, §3, §4, §5, §6

[4] = test system: HCT116 (KRas-G13D); experiment: as above; conditions: Homo sapiens, HCT-116, colorectal cancer, 72 h; for inhibition at up to 10 µM: top concentration 10 μM, read-out: Maximum inhibition %
Description: as §1, §2, §3, §4, §5, §6

[5] = test system: Kyse-410 (KRas-G12C); experiment: as above; conditions: Homo sapiens, esophageal cancer, 72 h; for inhibition at up to 10 µM: top concentration 10 μM, read-out: Maximum inhibition %
Description: as §1, §2, §3, §4, §5, §6

[6] = test system: MIA-PaCa-2 (KRas-G12C); experiment: as above; conditions: Homo sapiens, pancreatic cancer, 72 h; for inhibition at up to 10 µM: top concentration 10 μM, read-out: Maximum inhibition %
Description: as §1, §2, §3, §4, §5, §6

[7] = test system: SW837 (KRas-G12C); experiment: as above; conditions: Homo sapiens, rectal cancer, 72 h; for inhibition at up to 10 µM: top concentration 10 μM, read-out: Maximum inhibition %
Description: as §1, §2, §3, §4, §5, §6

[8] = test system: T84 (KRas-G13D); experiment: as above; conditions: colon cancer, 72 h; for inhibition at up to 10 µM: top concentration 10 μM, read-out: Maximum inhibition %
Description: as §1, §2, §3, §4, §5, §6

[9] = test system: BaF3-KRas-G12C-H95D; experiment: Proliferation of KRas G12C inhibitor-resistant cell model, CTG; conditions: Adagrasib acquired-resistance model
Description: as §3
(§7) 10 μL of each diluted compound solution was transferred to the corresponding experimental well of the 96-well cell plate and each concentration was set three replicate wells. The cells in the 96-well plate that had been dosed were incubated at 37° C. and 5% CO2 for 72 hours, and then CTG analysis was performed.
as §5, §6
(§8) Acquired resistance is one of the key factors that affect the treatment efficacy of KRas G12C inhibitors.
(§9) All cell lines used in this assay were provided by KYinno Biotechnology Co., Ltd.

[10] = test system: BaF3-KRas-G12C-H95Q; experiment: as above; conditions: Adagrasib acquired-resistance model
Description: as §3, §7, §5, §6, §8, §9

[11] = test system: BaF3-KRas-G12C-R68S; experiment: as above; conditions: Adagrasib acquired-resistance model
Description: as §3, §7, §5, §6, §8, §9

[12] = test system: BaF3-KRas-G12C-Y96C; experiment: as above; conditions: Adagrasib acquired-resistance model
Description: as §3, §7, §5, §6, §8, §9

[13] = test system: BaF3-KRas-G12C-Y96D; experiment: as above; conditions: Adagrasib acquired-resistance model
Description: as §3, §7, §5, §6, §8, §9

Row | IC50 ([1]; read-out: Absolute IC50) | IC50 ([1]; read-out: Relative IC50) | IC50 ([2]; read-out: Absolute IC50) | IC50 ([2]; read-out: Relative IC50) | IC50 ([4]; read-out: Absolute IC50) | IC50 ([4]; read-out: Relative IC50) | IC50 ([6]; read-out: Absolute IC50) | IC50 ([6]; read-out: Relative IC50) | IC50 ([7]; read-out: Absolute IC50) | IC50 ([7]; read-out: Relative IC50) | Compound | inhibition at up to 10 µM [1] | inhibition at up to 10 µM [2] | IC50 ([3]; read-out: Absolute IC50) | IC50 ([3]; read-out: Relative IC50) | inhibition at up to 10 µM [3] | inhibition at up to 10 µM [4] | IC50 ([5]; read-out: Absolute IC50) | IC50 ([5]; read-out: Relative IC50) | inhibition at up to 10 µM [5] | inhibition at up to 10 µM [6] | other results
1 | > 10000 nM | > 10000 nM | 1510 nM | 1640 nM | 7060 nM | 5890 nM | 81 nM | 36 nM | 431 nM | 17 nM | C=CC(=O)N1CCN(c2c(C#N)cnc3c(F)c(-c4ccc(F)c5sc(N)nc45)c(Cl)cc23)CC1 [Example 9, 4-(4-Acryloylpiperazin-1-yl)-7-(2-amino-7-fluorobenzo[d]thiazol-4-yl)-6-chloro-8-fluoroquinoline-3-carbonitrile] | 44.1% | 80.3% | 273 nM | 205 nM | 94.4% | 62% | 1570 nM | 2040 nM | 77.5% | 85.9% | inhibition at up to 10 µM [7]: 60%; IC50 ([8]; read-out: Absolute IC50): > 10000 nM; IC50 ([8]; read-out: Relative IC50): > 10000 nM; inhibition at up to 10 µM [8]: 14.7%; IC50 [9]: 100 nM; IC50 [10]: 91 nM; IC50 [11]: 560 nM; IC50 [12]: 310 nM; IC50 [13]: 1290 nM
2 | > 10000 nM | > 10000 nM | 3240 nM | 1920 nM | > 10000 nM | > 10000 nM | 92 nM | 41 nM | > 10000 nM | 18 nM | C=CC(=O)N1CCN(c2ncnc3c(F)c(-c4ccc(F)c5sc(N)nc45)c(Cl)cc23)CC1 [Ref. Comp. A, reference compound] | 19.7% | 65.2% | 521 nM | 320 nM | 85.9% | 29.3% | 7240 nM | 5630 nM | 58.3% | 74.5% | inhibition at up to 10 µM [7]: 48.6%; IC50 ([8]; read-out: Absolute IC50): > 10000 nM; IC50 ([8]; read-out: Relative IC50): > 10000 nM; inhibition at up to 10 µM [8]: 4.59%; IC50 [9]: 150 nM; IC50 [10]: 120 nM; IC50 [11]: 1790 nM; IC50 [12]: 550 nM; IC50 [13]: 3240 nM

Reference: US20230406849A1, “KRAS INHIBITORS FOR TREATMENT OF CANCERS” (TYLIGAND BIOSCIENCE (SHANGHAI) LIMITED, priority 2020, published 2023)
